Read-outs that look alike come from different tables or passages of the source. Values belong to the molecule of their own block, whether it stands above or below them.
Molecular target: T1, P2X7 receptor (Homo sapiens, UniProt Q99572)
T1 construct: host or cells: SH-SY5Y
T1 sequence (Q99572 1-595): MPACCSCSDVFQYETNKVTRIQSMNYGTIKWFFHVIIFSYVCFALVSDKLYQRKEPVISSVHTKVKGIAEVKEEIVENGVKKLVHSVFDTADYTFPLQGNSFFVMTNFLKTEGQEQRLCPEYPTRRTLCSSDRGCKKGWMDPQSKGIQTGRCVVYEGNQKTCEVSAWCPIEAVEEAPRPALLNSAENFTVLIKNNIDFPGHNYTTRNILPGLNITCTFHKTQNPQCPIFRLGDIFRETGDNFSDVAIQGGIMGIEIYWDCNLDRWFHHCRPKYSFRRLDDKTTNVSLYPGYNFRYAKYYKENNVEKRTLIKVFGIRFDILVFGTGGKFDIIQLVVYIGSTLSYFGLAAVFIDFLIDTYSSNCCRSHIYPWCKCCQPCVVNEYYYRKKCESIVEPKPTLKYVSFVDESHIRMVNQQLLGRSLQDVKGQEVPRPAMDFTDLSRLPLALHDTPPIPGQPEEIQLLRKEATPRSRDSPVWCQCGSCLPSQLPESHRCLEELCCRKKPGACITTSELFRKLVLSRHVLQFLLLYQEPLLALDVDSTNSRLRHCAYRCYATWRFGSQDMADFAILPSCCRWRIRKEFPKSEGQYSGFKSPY
Assay: P2X7 calcium mobilization assay, high throughput, antagonist activity (Example 4A)
Type: cell-based
Conditions: read-out: IC50
How it was run: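 Antagonism was measured as calcium mobilization on FLIPR^TETRA after a 1 h room-temperature compound preincubation of dye-loaded cells. Baseline from no-agonist wells was subtracted from each well's maximum RFU.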

[1] = 50% decrease in the fluorescence response of cells exposed to 80 μM of 2′(3′)-O-(4-benzoyl-benzoyl)adenosine 5′-triphosphate, determined as in Example 4A
[2] = 50% decrease in the fluorescence response of cells exposed to 80 μM of 2′(3′)-O-(4-benzoyl-benzoyl)adenosine 5′-triphosphate, Example 4A
[3] = fluorescence response of cells exposed to 80 μM 2′(3′)-O-(4-benzoyl-benzoyl)adenosine 5′-triphosphate, Example 4A
[4] = 50% decrease in the fluorescence response of cells exposed to 80 μM 2′(3′)-O-(4-benzoyl-benzoyl)adenosine 5′-triphosphate, Example 4A
[5] = SH-SY5Y cells, 50% decrease in fluorescence response to 80 μM BzATP

Compound: CC(C)N(CCCO)C(=O)c1cn2c(C(=O)NCC34CC5CC(CC(C5)C3)C4)cccc2n1 [Compound 695, 5-N-(adamantan-1-ylmethyl)-2-N-(3-hydroxypropyl)-2-N-isopropylimidazol[1,2-a]pyridine-2,5-dicarboxamide]
- IC50 [2]: < 2000 nM

Compound: O=C(CC12CC3CC(CC(C3)C1)C2)Nc1cccc2nc(C(=O)N3CCCCC3CO)cn12 (stereo not shown) [Compound 415, 2-adamantan-1-yl-N-(2-{[2-(hydroxymethyl)piperidin-1-yl]carbonyl}imidazo[1,2-a]pyridin-5-yl)acetamide]
- IC50 [3]: < 2000 nM

Compound: CC(C)C[C@@H](NC(=O)c1cn2c(C(=O)NC[C@@H]3CC[C@H]4C[C@@H]3C4(C)C)cccc2n1)C(N)=O [Compound 514, 2-N-[(1R)-1-carbamoyl-3-methylbutyl]-5-N-{[(1S,2R,5S)-6,6-dimethylbicyclo[3.1.1]hept-2-yl]methyl} imidazo[1,2-a]pyridine-2,5-dicarboxamide]
- IC50 [4]: < 2000 nM

Compound: CCN(CC)CCCNC(=O)c1cn2c(C(=O)NCC34CC5CC(CC(C5)C3)C4)cccc2n1 [Compound 658, 5-N-(adamantan-1-ylmethyl)-2-N-[3-(diethylamino)propyl] imidazo[1,2-a] pyridine-2,5-dicarboxamide]
- IC50 [2]: < 2000 nM

Compound: O=C(NCC12CC3CC(CC(C3)C1)C2)c1cccc2nc(CCc3nnn[nH]3)cn12 [Compound 292, N-(adamantan-1-ylmethyl)-2-(2-(1H-tetrazol-5-yl)ethyl]imidazo[1,2-a]pyridine-5-carboxamide]
- IC50 [3]: < 2000 nM

Compound: O=C(NCC12CC3CC(CC(C3)C1)C2)c1cccc2nc(CN3CC[C@@H](F)C3)cn12 [Compound 294, N-(adamantan-1-ylmethyl)-2-[(3-fluoropyrrolidin-1-yl)methyl]imidazo[1,2-a]pyridine-5-carboxamide]
- IC50 [3]: < 2000 nM

Compound: O=C(NCC(c1ccc(Cl)cc1)N1CCCCC1)c1cccc2ncc(Br)n12 (stereo not shown) [Compound 1056, 3-bromo-N-[2-(4-chlorophenyl)-2-piperidin-1-ylethyl]imidazo[1,2-a]pyridine-5-carboxamide]
- IC50 (P2X7 calcium mobilization, Example 4A, 50% decrease in the fluorescence response of cells exposed to 80 μM of (2′(3′)-O-(4-benzoyl-benzoyl)adenosine 5′-triphosephate)): < 2000 nM

Compound: CC(C)C(=O)N[C@@H]1CCN(Cc2cn3c(C(=O)NCC45CC6CC(CC(C6)C4)C5)cccc3n2)C1 (stereo in doubt) [Compound 71, N-(adamantan-1-ylmethyl)-2-{[3-(isobutyryl-amino)pyrrolidin-1-yl]methyl}imidazo[1,2-a]pyridine-5-carboxamide]
- IC50 [5]: < 2000 nM

Compound: CC(C)CC(CNC(=O)c1cccc2nc(Cn3ccccc3=O)cn12)c1cccnc1 (stereo not shown) [Compound 729, N-(4-methyl-2-pyridin-3-ylpentyl)-2-[(2-oxopyridin-1(2H)-yl)methyl] imidazo[1,2-a]pyridine-5-carboxamide]
- IC50 [2]: < 2000 nM

Compound: NC1CN(Cc2cn3c(C(=O)NCC45CC6CC(CC(C6)C4)C5)cccc3n2)C1 [Compound 130, N-(adamantan-1-ylmethyl)-2-[(3-aminoazetidin-1-yl)methyl]imidazo[1,2-a]pyridine-5-carboxamide]
- IC50 [5]: < 2000 nM

Compound: CC(C)CC(CNC(=O)c1cccc2nc(Cn3nnc(CCO)n3)cn12)c1ccc(Cl)cc1 (stereo not shown) [Compound 918, N-[2-(4-chlorophenyl)-4-methylpentyl]-2-{[5-(2-hydroxyethyl)-2H-tetrazol-2-yl]methyl}imidazo[1,2-a]pyridine-5-carboxamide]
- IC50 [1]: < 2000 nM

Compound: NCC1CCN(C(=O)c2cn3c(C(=O)NCC45CC6CC(CC(C6)C4)C5)cccc3n2)CC1 [Compound 630, N-(adamantan-1-ylmethyl)-2-{[4-(aminomethyl)piperidin-1-yl]carbonyl}imidazo[1,2-a]pyridine-5-carboxamide]
- IC50 [2]: < 2000 nM

Compound: N[C@@H]1CCN(C(=O)c2cn3c(NC(=O)CC45CC6CC(CC(C6)C4)C5)cccc3n2)C1 [Compound 725, 2-adamantan-1-yl-N-(2-{[(3R)-3-aminopyrrolidin-1-yl]carbonyl}imidazo[1,2-a]pyridin-5-yl)acetamide]
- IC50 [2]: < 2000 nM

Compound: CC1(C)[C@H]2CC[C@@H](CNC(=O)c3cccc4nc(C(=O)N5C[C@@H]6CC5CN6)cn34)[C@@H]1C2 (stereo in doubt) [Compound 303, 2-[(1S,4S)-2,5-diazabicyclo[2.2.1]hept-2-ylcarbonyl]-N-{[(1S,2R,5S)-6,6-dimethylbicyclo[3.1.1]hept-2-yl]methyl}imidazo[1,2-a]pyridine-5-carboxamide]
- IC50 [3]: < 2000 nM

Compound: CCCCN(C)C(=O)c1cn2c(NC(=O)CC34CC5CC(CC(C5)C3)C4)cccc2n1 [Compound 360, 5-[(adamantan-1-ylacetyl)amino]-N-butyl-N-methylimidazo[1,2-a]pyridine-2-carboxamide]
- IC50 [3]: < 2000 nM

Second part, the molecule after the results:

- IC50 [1]: < 2000 nM
Compound: CC(C)(C)OC(=O)N1CC[C@@H](NC(=O)Cc2cn3c(C(=O)NCC4(c5ccc(Cl)cc5)CCCCC4)cccc3n2)C1 [Compound 968, tert-butyl (3R)-3-({[5-({[1-(4-chlorophenyl)cyclohexyl]methyl}carbamoyl)imidazo[1,2-a]pyridin-2-yl]acetyl}amino) pyrrolidine-1-carboxylate]

- IC50 [5]: < 2000 nM
Compound: CCCOCCNC(=O)Cc1cn2c(C(=O)NCC34CC5CC(CC(C5)C3)C4)cccc2n1 [Compound 159, N-(adamantan-1-ylmethyl)-2-{2-oxo-2-[(2-propoxyethyl)amino]eth-yl}imidazo[1,2-a]pyridine-5-carboxamide]

- IC50 [5]: < 2000 nM
Compound: Cc1ccn(Cc2cn3c(C(=O)NCC45CC6CC(CC(C6)C4)C5)cccc3n2)n1 [Compound 210, N-(adamantan-1-ylmethyl)-2-[(3-methyl-1H-pyrazol-1-yl)methyl]imidazo[1,2-a]pyridine-5-carboxamide]

- IC50 [4]: < 2000 nM
Compound: CC1(C)[C@@H]2CC[C@@H](CNC(=O)c3cccc4nc(CC(=O)N5CCCC(N)C5)cn34)[C@H]1C2 (stereo partly drawn) [Compound 581, 2-[2-(3-aminopiperidin-1-yl)-2-oxoethyl]-N-{[(1R,2R,5R)-6,6-dimethylbicyclo[3.1.1]hept-2-yl]methyl}imidazo[1,2-a]pyridine-5-carboxamide]

- IC50 [5]: < 2000 nM
Compound: O=C(NCC12CC3CC(CC(C3)C1)C2)c1cccc2nc(Cn3ccccc3=O)cn12 [Compound 211, N-(adamantan-1-ylmethyl)-2-[(2-oxopyridin-1(2H)-yl)methyl]imidazo[1,2-a]pyridine-5-carboxamide]

- IC50 [1]: < 2000 nM
Compound: O=C(O)Cc1cn2c(C(=O)NCC3(c4ccc(C(F)(F)F)cc4)CCCCC3)cccc2n1 [Compound 963, {5-[({1-[4-(trifluoromethyl)phenyl]cyclohexyl}methyl)carbamoyl]imidazo[1,2-a]pyridin-2-yl}acetic acid]

- IC50 [3]: < 2000 nM
Compound: NCCc1cn2c(C(=O)NCC34CC5CC(CC(C5)C3)C4)cccc2n1 [Compound 297, N-(adamantan-1-ylmethyl)-2-(2-aminoethyl)imidazo [1,2-a]pyridine-5-carboxamide]

- IC50 [2]: < 2000 nM
Compound: O=C(NCC12CC3CC(CC(C3)C1)C2)c1cccc2nc(C(Cc3ccc(Cl)cc3)C(=O)O)cn12 (stereo not shown) [Compound 804, 2-{5-[(adamantan-1-ylmethyl)carbamoyl]imidazo[1,2-a]pyridin-2-yl}-3-(4-chlorophenyl) propanoic acid]

- IC50 [4]: < 2000 nM
Compound: CCOC(=O)Cc1cn2c(C(=O)NCC(CC(C)C)c3cccnc3)cccc2n1 (stereo not shown) [Compound 533, ethyl {5-[(4-methyl-2-pyridin-3-ylpentyl)carbamoyl]imidazo[1,2-a]pyridin-2-yl}acetate]

- IC50 [4]: < 2000 nM
Compound: CC1(C)[C@@H]2CC[C@@H](CNC(=O)c3cccc4nc(CC(=O)N5CCC[C@H]5CN)cn34)[C@H]1C2 [Compound 587, 2-{2-[(2S)-2-(aminomethyl)pyrrolidin-1-yl]-2-oxoethyl}-N-{[(1R,2R,5R)-6,6-dimethylbicyclo [3.1.1]hept-2-yl]methyl}imidazo[1,2-a]pyridine-5-carboxamide]

- IC50 [3]: < 2000 nM
Compound: CC(C)CC(CNC(=O)c1cccc2nc(CC(=O)NCC3CC3)cn12)c1ccccc1 (stereo not shown) [Compound 222, 2-{2-[(cyclopropylmethyl)amino]-2-oxoethyl}-N-(4-methyl-2-phenylpentyl) imidazo [1,2-a]pyridine-5-carboxamide]

- IC50 [2]: < 2000 nM
Compound: CC(C)CC(CNC(=O)c1cccc2nc(CC(=O)NCC(F)(F)F)cn12)c1ccc(Cl)cc1 (stereo not shown) [Compound 796, N-[2-(4-chlorophenyl)-4-methylpentyl]-2-{2-oxo-2-[(2,2,2-trifluoroethyl)amino]ethyl} imidazo[1,2-a] pyridine-5-carboxamide]

- IC50 [2]: < 2000 nM
Compound: CC(C)(C)OC(=O)N[C@@H]1CCN(Cc2cn3c(C(=O)NCC(CC4CCC4)c4ccccc4)cccc3n2)C1 (stereo in doubt) [Compound 777, tert-butyl [1-({5-[(3-cyclobutyl-2-phenylpropyl)carbamoyl]imidazo[1,2-a]pyridin-2-yl}methyl)pyrrolidin-3-yl]carbamate]

Source: US8431593B2, “Heteroaryl amide derivatives” (H. Lundbeck A/S, priority 2006, dated 2013)
